Data: US7405309B2, “Pyranone derivatives useful for treating cancer” (Centre National de la Recherche Scientifique (CNRS), priority 2004, dated 2008)

Assays:
[1] = system: K562 cells (myeloid leukemia); assay: Study of the cell cycle by flow cytometry, K562; format: cell-based; conditions: significant after 24 hours at 10^−7 M
Method: (§1) The biological activity of iodomethylene-dimethyl-dihydropyranone (I), as obtained according to Example 1, was studied in vitro on five different cell lines: • KB (epidermoid carcinoma of the nasopharynx) • HCT-116 (colorectal carcinoma) • K562 (myeloid leukemia) • K562-MDR1 (myeloid leukemia; resistance to doxorubicin) • MCF7-MDR1 (mammary adenocarcinoma; resistance to doxorubicin)
(§2) The cells selected for this study were incubated at 37° C. in the presence of iodomethylene-dimethyl-dihydropyranone (I) added to the culture medium at various concentrations. All the experiments carried out made it possible to determine the degree of toxicity of the test compound, its effect on the course of the cell cycle and its capacity to induce cell death by apoptosis.
(§3) This effect is significant after 24 hours of exposure of the cells to iodomethylene-dimethyl-dihydropyranone (I) used at the concentration 10^−7 M (cf. FIG. 4: effect of (I) on the cell cycle of the leukemia cells K562).

[2] = system: HCT 116 tumor transplanted under the skin; assay: Antitumor activity in Nude mice carrying a transplanted HCT 116 tumor; format: in vivo
Method: This antitumor activity of the compounds of the invention was studied on transplanted tumors (such as HCT-116) in Nude mice (nu/nu mice). Nude mice are immunodeficient mice having no thymus.
The xenotransplantation of human tumor cells in Nude mice is a model commonly used for the evaluation of the antitumor activity of various molecules.
The iodomethylene-dimethyl-dihydropyranone (I) was injected 4 times at 3 day intervals (D0, D3, D6 and D9). Two groups of control animals were formed. The first group received no injection (control), whereas the animals of the second group received injections of the solution which served to solubilize the iodomethylene-dimethyl-dihydropyranone (I) (vehicle).
The volume of the tumors (mm^3) was measured with a caliper twice per week.

[3] = system: HCT-116 cells (colorectal carcinoma); assay: Study of cytotoxicity on HCT-116 cells; format: cell-based; conditions: Homo sapiens, 96 hours of incubation, 37° C., read-out: concentration which induces the death of 50% of the cells (IC50)
Method: as §1, §2
(§4) The cytotoxicity of iodomethylene-dimethyl-dihydropyranone (I) was evaluated on KB and HCT-116 cells.

[4] = in vivo; conditions: Nude, mouse, iv
Method: Having determined the maximum tolerated dose for a single injection, the Nude mice were treated by the intravenous (iv) route with iodomethylene-dimethyl-dihydropyranone (I) injected at three different doses: 50, 70 and 90 mg/kg/injection. Each dose was administered 4 times at 3 day intervals (D0, D3, D6 and D9). The survival of the animals, their weight and clinical signs noted up to day 21 made it possible to establish the value of the maximum tolerated dose for four injections which is at less than 90 mg/kg. The 40, 60 and 80 mg/kg doses were therefore chosen for the evaluation of antitumor activity.

[5] = system: KB cells (epidermoid carcinoma of the nasopharynx); assay: Study of cytotoxicity on KB cells; format: cell-based; conditions: Homo sapiens, 96 hours of incubation, 37° C., read-out: concentration which induces the death of 50% of the cells (IC50)
Method: as §1, §2, §4

[6] = system: K562-MDR1 cells (myeloid leukemia; resistance to doxorubicin); assay: Study of the cell cycle by flow cytometry, K562-MDR1; format: cell-based; conditions: significant after 24 hours at 10^−7 M
Method: as §1, §2, §3

[7] = system: K562-MDR1 cells (chemoresistant); assay: Study of apoptosis, flow cytometry with annexin V / propidium iodide double labeling; format: cell-based; conditions: 24 hours, 10^−6 M and 10^−7 M
[8] = system: MCF7-MDR1 cells (mammary adenocarcinoma; resistance to doxorubicin); assay: Study of the cell cycle by flow cytometry, MCF7-MDR1; format: cell-based; conditions: significant after 24 hours at 10^−7 M
Method: as §1, §2, §3

[9] = system: K562 cells (myeloid leukemia); assay: Morphology of treated K562 cells; format: cell-based; conditions: 10^−7 M, 24 hours
Method: as §1, §2
It should also be emphasized that from 24 hours onwards after the treatment with iodomethylene-dimethyl-dihydropyranone (I) at the dose of 10^−7 M, a change is observed in the morphology of the treated cells.

[10] = system: HCT116 cells (colorectal carcinoma); assay: Study of the cell cycle by flow cytometry, HCT116; format: cell-based, human; conditions: significant after 24 hours at 10^−7 M
Method: as §1, §2, §3

[11] = Maximum tolerated dose for a single intravenous injection; conditions: Swiss Nu/nu (nude), mouse, in vivo, Nude mice, survival and weight monitored up to day 21
Method: The iodomethylene-dimethyl-dihydropyranone (I), as obtained according to Example 1, was injected by the intravenous route (iv) to 4-5 week old Nude mice (Swiss Nu/nu) at the following doses: 50 mg/kg, 66.6 mg/kg, 100 mg/kg, 150 mg/kg and 200 mg/kg.

With CC1(C)OC(=O)C=C/C1=C\I [E-5-iodomethylene-6,6-dimethyl-5,6-dihydropyran-2-one] as the compound, how does the “effect on the cell cycle” value [1] read?
Its value is “blocks cell division in all the lines at the G2/M phase”.

And the “tumor progression (tumor volume growth curves)” value ([2]; 80 mg/kg/injection iv, D0, D3, D6, D9, from the 2nd injection)?
The value was “significantly inhibits the tumor progression”.

What about the “percentage T/C (median tumor volume treated/control ×100)” value ([2]; 21 days after the start of the treatments, iv, 4 injections, dose not stated) of the same compound?
The value was 53.5%.

What about the IC50 [3] of the same compound?
Its IC50 is ~300 nM.

And the MTD at 21 day [4]?
The MTD at 21 day was < 90 mg/kg.

And the IC50 [5]?
Its IC50 is ~450 nM.

What about the “effect on the cell cycle” value [6] of the same compound?
The value was “blocks cell division in all the lines at the G2/M phase”.

And the “induction of apoptosis (positive annexin V/negative PI cells)” value [7]?
Its value is “high induction of apoptosis”.

What about the “effect on the cell cycle” value [8] of the same compound?
The value was “blocks cell division in all the lines at the G2/M phase”.

What about the “change in the morphology of the treated cells” value [9] of the same compound?
Its value is “the cells lose their round forms and become fusiform”.

What about the “effect on the cell cycle” value [10] of the same compound?
Its value is “blocks cell division in all the lines at the G2/M phase”.

What about the MTD at 21 day [11] of the same compound?
Its MTD at 21 day is 100 mg/kg.
